Columns and labels:
[1] = tested on: vancomycin susceptible receptor (VSR); test: Differential cantilever bending / surface stress of unpassivated VSR-functionalized cantilevers against Van; type: binding
Experimental: Detection of cantilever bending response in case of optical readout is performed, for example, by using serial time multiplexed optical beam method with a single position sensitive detector, although other readouts such as electronic or diffraction can be used. The laser spot (about 100 μm diameter) is aligned onto the free end of each sensor where the accuracy of alignment is confirmed by heating test. The expected precision of laser spot alignment is determined by calculating the bending variation at the maximum bending signals between individual cantilever sensors. Well aligned cantilevers at the maximum bending signals should yield a relative standard deviation of the bending signals of about ≤10%, preferably about ≤5%, between them. Correlating the response signal to the presence or absence of the molecule to be detected includes a first step of calculating the net change in stress, using the mathematical model reported above, and then a second step of associating the net change in stress value to the presence of absence of the molecule and, in case of presence, to the concentration level of the molecule.
Case I: Simultaneous functionalization of Au(top) and Si(bottom) surfaces of cantilever arrays: To systematically alter both Au(top) and Si(bottom) surfaces into chemically active sensing layers, the arrays of eight rectangular cantilevers were subjected to surface capture molecules in micro-capillary glass tubes (King Precision Glass, Claremont, Calif., USA), arranged according to the cantilever pitch size of 250 μm. The alkanethiols of self-assembled monolayers (SAMs), namely vancomycin susceptible receptor (VSR˜0.6 kDa) analogues to bacterial cell wall precursors that present uncrosslinked peptide motifs terminating in the sequence lysine-D-alanine-D-alanine and ‘inert’ SAM molecule terminating in triethylene glycol (PEG) whose detailed structural sequences have been described previously were diluted in ethanol solution to yield total concentrations of: 0.1 μM, 1 μM, 10 μM, 50 μM, 100 μM, 1000 μM, 2000 μM, 3000 μM and 4000 μM. Individual VSR and PEG concentrations were injected into micro-capillary glass tubes and cantilevers were then incubated inside the capillaries for 20 min, washed three times with ethanol and stored in distilled water until usage. The functionalization procedure was carried out without pre-adsorbing resistive protein monolayer bovine serum albumin (BSA) or PEG-silane, known for blocking nonspecific interactions.
To tune the receptor footprint (area per each receptor molecule) for enhanced biodetectability and to achieve satisfactory quantitative drug-target measurements, certain steps within the functionalization protocol were addressed. The first task was to define the percentage ratio of VSR by incorporating a receptor molecule with second SAM-forming molecule PEG. The ratio of VSR and PEG molecules dissolved in ethanol was varied to yield a total concentration in the solution of 1 μM, for which full surface coverage was established. The corresponding mixed ethanolic thiol solutions of VSR and ‘inert’ PEG mixed in the ratio of 30%, 70%, 90%, and 100% were used to coat cantilever arrays.
FIG. 1a-b show the functionalization of both surfaces of the cantilever with a self-assembled monolayer (SAM) of vancomycin (Van) susceptible receptor (VSR ˜0.6 kDa) analogues of the bacterial cell wall precursors that present uncrosslinked peptide motifs terminating in the sequence lysine-D-alanine-D-alanine. To eliminate the artifacts that produce non-specific signals differential measurements were performed in which reference polyethylene glycol(PEG)-coated cantilever bending signals were subtracted from the receptor signals.
This functionalization was performed without pre-adsorbing a resistive protein monolayer of bovine serum albumin (BSA) or PEG-silane, which are known to block non-specific interactions. […]

[2] = tested on: vancomycin susceptible receptor (VSR); conditions: previous measurements (known cantilever); cited from earlier work

## CN[C@H](CC(C)C)C(=O)N[C@H]1C(=O)N[C@@H](CC(N)=O)C(=O)N[C@H]2C(=O)N[C@H]3C(=O)N[C@H](C(=O)N[C@H](C(=O)O)c4cc(O)cc(O)c4-c4cc3ccc4O)[C@H](O)c3ccc(c(Cl)c3)Oc3cc2cc(c3O[C@@H]2O[C@H](CO)[C@@H](O)[C@H](O)[C@H]2O[C@H]2C[C@](C)(N)[C@H](O)[C@H](C)O2)Oc2ccc(cc2Cl)[C@H]1O [Van, vancomycin]
[1]; Van 250 μM, VSR 50 μM in functionalizing solution, unpassivated cantilever
  Compressive stress (differential surface stress): 52 mN m^−1
[1]; Van 250 μM, VSR concentration beyond 50 μM (regime II)
  Stress signal σmax: ≈ 5 mN m^−1
[1]; Van 250 μM, VSR/PEG 100% receptor, total concentration 1 μM
  Cantilever stress: highest stress
[1]; Van 250 μM, VSR/PEG ~30% receptor, total concentration 1 μM
  Cantilever deflection signal: negligible
[1]; Van 250 μM, reference PEG-coated cantilevers
  Differential stress / bending response on reference PEG-coated cantilevers: no bending response and zero
[1]; in the presence of Van, uncoated Au and Si surfaces as control
  Mechanical response on uncoated Au and Si surfaces: undetectable
[2]
  Net stress, previous measurements: 33 mN m^−1

Source: patent publication US11137392B2, “Cantilever sensors for molecule detection” (3P SENSE LIMITED, priority 2016, dated 2021)
